Broadly, the IC50 is the point on the concentration scale where inhibition reaches its midpoint.

Chain of 5HT7 receptors (P34969 whole entry): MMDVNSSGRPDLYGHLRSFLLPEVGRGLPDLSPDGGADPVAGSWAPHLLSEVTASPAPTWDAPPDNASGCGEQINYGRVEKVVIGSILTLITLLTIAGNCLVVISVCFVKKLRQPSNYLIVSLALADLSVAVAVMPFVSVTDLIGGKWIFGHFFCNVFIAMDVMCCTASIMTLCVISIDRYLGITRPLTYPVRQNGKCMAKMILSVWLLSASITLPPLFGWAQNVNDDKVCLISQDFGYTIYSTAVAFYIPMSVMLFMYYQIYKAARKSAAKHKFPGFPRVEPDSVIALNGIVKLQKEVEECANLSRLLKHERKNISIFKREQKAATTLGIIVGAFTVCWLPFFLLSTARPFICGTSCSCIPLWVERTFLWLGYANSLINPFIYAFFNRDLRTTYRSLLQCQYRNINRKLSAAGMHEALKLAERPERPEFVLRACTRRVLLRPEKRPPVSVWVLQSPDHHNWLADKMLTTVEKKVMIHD

This assay concerns the target 5HT7 receptors (Homo sapiens (Human), UniProt P34969). The experiment in a line: Radiolabel Binding Studies for Serotonin 5-HT7 Receptors, Method 2 ([3H]-5HT competition; Ki and percent inhibition at 10 μM). The settings on record: radioligand competition binding. As for the experimental part:
Radiolabel Binding Studies for Serotonin 5-HT7 Receptors, Method 2:
A solution of the compound of the disclosure to be tested is prepared as a 1-mg/ml stock in Assay Buffer or DMSO according to its solubility. A similar stock of the reference compound chlorpromazine is also prepared as a positive control. Eleven dilutions (5×assay concentration) of the compound of the disclosure and chlorpromazine are prepared in the Assay Buffer by serial dilution to yield final corresponding assay concentrations ranging from 10 pM to 10 μM.
A stock concentration of 5 nM [^3H]-5-Hydroxytryptamine ([^3H]-5HT) is prepared in 50 mM Tris-HCl, 10 mM MgCl2, 1 mM EDTA, pH 7.4 (Assay Buffer). Aliquots (50 μl) of radioligand are dispensed into the wells of a 96-well plate containing 100 μl of Assay Buffer. Duplicate 50-μl aliquots of the compound of the disclosure test and chlorpromazine positive control reference compound serial dilutions are added.
Membrane fractions of cells expressing recombinant 5HT7 receptors (50 L) are dispensed into each well. The membranes are prepared from stably transfected cell lines expressing 5HT7 receptors cultured on 10-cm plates by harvesting PBS-rinsed monolayers, resuspending and lysing in chilled, hypotonic 50 mM Tris-HCl, pH 7.4, centrifuging at 20,000×g, decanting the supernatant and storing at −80° C.; the membrane preparations are resuspended in 3 ml of chilled Assay Buffer and homogenized by several passages through a 26 gauge needle before using in the assay.
The 250-μl reactions are incubated at room temperature for 1.5 hours, then harvested by rapid filtration onto 0.3% polyethyleneimine-treated, 96-well filter mats using a 96-well Filtermate harvester. Four rapid 500-μl washes are performed with chilled Assay Buffer to reduce non-specific binding. The filter mats are dried, then scintillant is added to the filters and the radioactivity retained on the filters is counted in a Microbeta scintillation counter.
Raw data (dpm) representing total radioligand binding (i.e., specific+non-specific binding) are plotted as a function of the logarithm of the molar concentration of the competitor (i.e., test or reference compound). Non-linear regression of the normalized (i.e., percent radioligand binding compared to that observed in the absence of test or reference compound) raw data is performed in Prism 4.0 (GraphPad Software) using the built-in three parameter logistic model describing ligand competition binding to radioligand-labeled sites:
where bottom equals the residual radioligand binding measured in the presence of 10 μM reference compound (i.e., non-specific binding) and top equals the total radioligand binding observed in the absence of competitor. The log IC50 (i.e., the log of the ligand concentration that reduces radioligand binding by 50%) is thus estimated from the data and used to obtain the Ki by applying the Cheng-Prusoff approximation:
where [ligand] equals the assay radioligand concentration and KD equals the affinity constant of the radioligand for the target receptor.
Compounds of the disclosure are also screened at a single concentration of 10 μM using the same method described for the Radiolabel Binding Studies for Serotonin 5HT7 receptors to determine the percent inhibition of [^3H]-5HT binding.
For orientation: In a radioligand displacement assay an active substance lowers the binding of a labelled ligand.
`Cc1ccc(N2CCN(CCC3CC4(CCN(Cc5ccccc5)CC4)C(=O)O3)CC2)cc1` (centres unmarked) [Entry 1]: the IC50 stood at 0.018 µM.

For the compound `Cc1ccc(N2CCN(CCC3CC4(CCN(S(=O)(=O)C5CCOCC5)CC4)C(=O)O3)CC2)cc1` (centres unmarked) [Example 13], the IC50 is 0.096 µM.

With `Cc1nc2cccc(N3CCN(CCC4CC5(CCN(S(C)(=O)=O)CC5)C(=O)O4)CC3)c2[nH]1` (centres unmarked) [Entry 8], the IC50 is 0.046 µM.

Turning to `CS(=O)(=O)N1CCC2(CC1)CC(CCN1CCN(c3ccccc3N3CCOCC3)CC1)OC2=O` (centres unmarked) [Entry 7], the IC50 was 0.034 µM.

For the compound `CS(=O)(=O)N1CCC2(CC1)CC(CCN1CCN(c3ccc(Cl)cc3)CC1)OC2=O` (centres unmarked) [Entry 9], the IC50 is 0.303 µM. This IC50 is about 8.9-fold higher than that of the compound before.

`Cc1ccc(N2CCN(CCC3CC4(CCN(S(=O)(=O)c5ccc(Cl)cc5)CC4)C(=O)O3)CC2)cc1` (centres unmarked) [Example 12] had an IC50 of 0.108 µM.

On to `CS(=O)(=O)N1CCC2(CC1)CC(CCN1CCN(c3ccc(O)cc3)CC1)OC2=O` (centres unmarked) [Example 22], for which the IC50 amounted to 0.202 µM. Against the preceding compound, the IC50 is about 1.9-fold higher.

In the case of `COc1ccc(S(=O)(=O)N2CCC3(CC2)CC(CCN2CCN(c4ccc(C)cc4)CC2)OC3=O)cc1` (centres unmarked) [Entry 11], the IC50 turned out to be 0.077 µM. This IC50 lies about 2.6-fold lower than the previous one.

For `Cc1ccc(N2CCN(CCC3CC4(CCN(S(C)(=O)=O)CC4)C(=O)O3)CC2)c(N2CCOCC2)c1` (centres unmarked) [Example 20], the IC50 is 0.067 µM.

As for `COC(=O)N1CCC2(CC1)CC(CCN1CCN(c3ccc(C)cc3)CC1)OC2=O` (centres unmarked) [Entry 3], the IC50 came to 0.081 µM.

`Cc1ccc(N2CCN(CCC3CC4(CCNCC4)C(=O)O3)CC2)cc1` (centres unmarked) [Entry 2] displayed an IC50 of 0.149 µM.

The compound `CS(=O)(=O)N1CCC2(CC1)CC(CCN1CCN(c3ccc(C#N)cc3N3CCOCC3)CC1)OC2=O` (centres unmarked) [Entry 19] came in with an IC50 of 0.461 µM.

The compound `CC(=O)N1CCC2(CC1)CC(CCN1CCN(c3ccc(C)cc3)CC1)OC2=O` (centres unmarked) [Entry 4] returned an IC50 of 0.122 µM.

Compound `CNC(=O)N1CCC2(CC1)CC(CCN1CCN(c3ccc(C)cc3)CC1)OC2=O` (centres unmarked) [Entry 5] yielded an IC50 of 0.102 µM. This IC50 and that of the compound before are within 1.5-fold of each other.

Consider `Cc1ccc(N2CCN(CCC3CC4(CCN(S(=O)(=O)c5ccccc5)CC4)C(=O)O3)CC2)cc1` (centres unmarked) [Entry 10], for which the half-maximal inhibitory concentration (IC50) stood at 0.064 µM.

As to `Cc1ccc(N2CCN(CCC3CC4(CCN(S(C)(=O)=O)CC4)C(=O)O3)CC2)cc1` (centres unmarked) [Entry 6], the IC50 was determined as 0.093 µM.

On to `CS(=O)(=O)N1CCC2(CC1)CC(CCN1CCN(c3ccc(O)cc3N3CCOCC3)CC1)OC2=O` (centres unmarked) [Example 21], for which the IC50 was 0.075 µM.

Values taken from patent publication US20250282790A1 (Temple University-Of The Commonwealth System of Higher …, priority 2016, published 2025).
